Data taken from patent US10517889B2, “Modulators of SMAD7 expression” (Ionis Pharmaceuticals, Inc., priority 2017, dated 2019).
Strand notation (5' to 3'): a small letter for the sugar, then the base; units joined by * are phosphorothioate-linked, units joined directly phosphodiester-linked; [ ] holds rarer units or linkages, { } end groups; capitals alone tell only the bases. k = constrained ethyl (cEt); [5mC] = 5-methylcytosine; d = 2'-deoxy (DNA)

What follows are substances tested on human SMAD7 mRNA (assay: Antisense inhibition of human SMAD7 mRNA expression in Hep3B cells by 3-10-3 cEt gapmers, 10,000 nM, electroporation (Example 2)). Conditions: SMAD7 mRNA, Hep3B cells, electroporation with 10,000 nM antisense oligonucleotide, approximately 24 hours, primer probe set RTS5062, relative to untreated control cells.
Assay type: cell-based
Procedure, shortened: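 Hep3B cells (20,000/well) were electroporated with 10,000 nM 3-10-3 cEt gapmer (16-mer, phosphorothioate, 5-methylcytosines) and harvested after about 24 h. SMAD7 mRNA quantified by RT-qPCR with primer probe set RTS5062, normalized to total RNA by RiboGreen; percent inhibition relative to untreated cells.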

In order of rising “% Inhibition” value:
1. 829833 (kG*kT*kG*dA*d[5mC]*d[5mC]*dG*dA*dT*d[5mC]*d[5mC]*d[5mC]*d[5mC]*kA*kG*kG; antisense) [compound 829833]  0%
2. 829840 (kG*kG*kA*d[5mC]*dA*d[5mC]*dA*dG*dT*dA*dG*dA*dG*k[5mC]*k[5mC]*kT; antisense) [compound 829840]  0%
3. 829855 (antisense kA*kG*k[5mC]*dT*dG*dA*d[5mC]*dT*d[5mC]*dT*dT*dG*dT*kT*kG*kT) [compound 829855]  0%
4. 829883 (antisense k[5mC]*kA*kG*dG*d[5mC]*dT*dG*dT*dA*d[5mC]*dG*d[5mC]*d[5mC]*kT*kT*k[5mC]) [compound 829883]  0%
5. 829871 (antisense kG*kT*k[5mC]*d[5mC]*dA*dG*dT*dG*dT*dG*dG*d[5mC]*dG*kG*kA*k[5mC]) [compound 829871]  1%
6. 829882 (antisense kA*kG*kG*d[5mC]*dT*dG*dT*dA*d[5mC]*dG*d[5mC]*d[5mC]*dT*kT*k[5mC]*kT) [compound 829882]  3%
7. 829839 (kA*k[5mC]*kA*d[5mC]*dA*dG*dT*dA*dG*dA*dG*d[5mC]*d[5mC]*kT*k[5mC]*k[5mC]; antisense) [compound 829839]  8%
8. 829866 (antisense kG*kT*kG*dG*d[5mC]*dG*dG*dA*d[5mC]*dT*dT*dG*dA*kT*kG*kA) [compound 829866]  10%
9. 829837 (k[5mC]*k[5mC]*kA*dG*dT*dA*dT*dG*d[5mC]*d[5mC]*dA*d[5mC]*d[5mC]*kA*k[5mC]*kG; antisense) [compound 829837]  16%
10. 829878 (antisense kG*kA*kG*dT*d[5mC]*d[5mC]*dG*dG*dG*dT*dT*dG*dT*k[5mC]*k[5mC]*kA) [compound 829878]  18%
11. 829870 (antisense k[5mC]*k[5mC]*kA*dG*dT*dG*dT*dG*dG*d[5mC]*dG*dG*dA*k[5mC]*kT*kT) [compound 829870]  19%
12. 829862 (antisense k[5mC]*kT*kG*d[5mC]*dT*dG*d[5mC]*dG*dG*dT*dT*dG*dT*kA*k[5mC]*kA) [compound 829862]  22%
13. 829867 (antisense kT*kG*kT*dG*dG*d[5mC]*dG*dG*dA*d[5mC]*dT*dT*dG*kA*kT*kG) [compound 829867]  22%
14. 829854 (antisense kG*k[5mC]*kT*dG*dA*d[5mC]*dT*d[5mC]*dT*dT*dG*dT*dT*kG*kT*k[5mC]) [compound 829854]  25%
15. 829842 (k[5mC]*k[5mC]*kG*dA*dG*dG*d[5mC]*dA*dA*dA*dA*dG*d[5mC]*k[5mC]*kA*kT; antisense) [compound 829842]  26%
16. 829838 (k[5mC]*k[5mC]*k[5mC]*dA*dG*dT*dA*dT*dG*d[5mC]*d[5mC]*dA*d[5mC]*k[5mC]*kA*k[5mC]; antisense) [compound 829838]  28%
17. 829834 (kG*kT*kG*dT*dG*dA*d[5mC]*d[5mC]*dG*dA*dT*d[5mC]*d[5mC]*k[5mC]*k[5mC]*kA; antisense) [compound 829834]  29%
18. 829846 (antisense kG*kT*k[5mC]*d[5mC]*dG*dA*dA*dT*dT*dG*dA*dG*d[5mC]*kT*kG*kT) [compound 829846]  29%
19. 829879 (antisense kT*kG*kG*dA*dG*dT*d[5mC]*d[5mC]*dG*dG*dG*dT*dT*kG*kT*k[5mC]) [compound 829879]  29%
20. 829865 (antisense kG*kG*k[5mC]*dG*dG*dA*d[5mC]*dT*dT*dG*dA*dT*dG*kA*kA*kG) [compound 829865]  30%
21. 829876 (antisense k[5mC]*k[5mC]*kG*dG*dG*dT*dT*dG*dT*d[5mC]*d[5mC]*dA*dG*kT*kG*kT) [compound 829876]  30%
22. 829851 (antisense k[5mC]*kT*kT*dG*dT*dT*dG*dT*d[5mC]*d[5mC]*dG*dA*dA*kT*kT*kG) [compound 829851]  31%
23. 829857 (antisense kT*kG*k[5mC]*dA*d[5mC]*d[5mC]*dA*dG*d[5mC]*dT*dG*dA*d[5mC]*kT*k[5mC]*kT) [compound 829857]  31%
24. 829860 (antisense kG*kT*k[5mC]*dA*dG*d[5mC]*dT*dG*dG*dA*dT*dG*d[5mC]*k[5mC]*kG*k[5mC]) [compound 829860]  31%
25. 829863 (antisense kA*k[5mC]*kT*dG*d[5mC]*dT*dG*d[5mC]*dG*dG*dT*dT*dG*kT*kA*k[5mC]) [compound 829863]  31%
26. 829880 (antisense kT*k[5mC]*k[5mC]*dT*dG*dG*dA*dG*dT*d[5mC]*d[5mC]*dG*dG*kG*kT*kT) [compound 829880]  32%
27. 829852 (antisense kT*k[5mC]*kT*dT*dG*dT*dT*dG*dT*d[5mC]*d[5mC]*dG*dA*kA*kT*kT) [compound 829852]  33%
28. 829861 (antisense k[5mC]*k[5mC]*kA*dT*d[5mC]*d[5mC]*dA*d[5mC]*d[5mC]*dT*d[5mC]*d[5mC]*d[5mC]*kG*k[5mC]*kG) [compound 829861]  35%
29. 829850 (antisense kT*kT*kG*dT*dT*dG*dT*d[5mC]*d[5mC]*dG*dA*dA*dT*kT*kG*kA) [compound 829850]  36%
30. 829869 (antisense k[5mC]*kA*kG*dT*dG*dT*dG*dG*d[5mC]*dG*dG*dA*d[5mC]*kT*kT*kG) [compound 829869]  37%
31. 829859 (antisense kT*kT*kT*dT*dG*d[5mC]*dT*d[5mC]*d[5mC]*dG*d[5mC]*dA*d[5mC]*k[5mC]*kT*kT) [compound 829859]  39%
32. 829881 (antisense k[5mC]*kG*kT*d[5mC]*d[5mC]*dT*dG*dG*dA*dG*dT*d[5mC]*d[5mC]*kG*kG*kG) [compound 829881]  39%
33. 829845 (antisense kT*k[5mC]*k[5mC]*dG*dA*dA*dT*dT*dG*dA*dG*d[5mC]*dT*kG*kT*k[5mC]) [compound 829845]  40%
34. 829856 (antisense kA*k[5mC]*k[5mC]*dA*dG*d[5mC]*dT*dG*dA*d[5mC]*dT*d[5mC]*dT*kT*kG*kT) [compound 829856]  41%
35. 829853 (antisense kA*k[5mC]*kT*d[5mC]*dT*dT*dG*dT*dT*dG*dT*d[5mC]*d[5mC]*kG*kA*kA) [compound 829853]  42%
36. 829877 (antisense kT*k[5mC]*k[5mC]*dG*dG*dG*dT*dT*dG*dT*d[5mC]*d[5mC]*dA*kG*kT*kG) [compound 829877]  42%
37. 829874 (antisense kG*kT*kT*dG*dT*d[5mC]*d[5mC]*dA*dG*dT*dG*dT*dG*kG*k[5mC]*kG) [compound 829874]  43%
38. 829848 (antisense kT*kT*kG*dT*d[5mC]*d[5mC]*dG*dA*dA*dT*dT*dG*dA*kG*k[5mC]*kT) [compound 829848]  47%
39. 829836 (k[5mC]*k[5mC]*kA*dG*dT*dG*dT*dG*dA*d[5mC]*d[5mC]*dG*dA*kT*k[5mC]*k[5mC]; antisense) [compound 829836]  48%
40. 829843 (antisense kG*kA*kA*dT*dT*dG*dA*dG*d[5mC]*dT*dG*dT*d[5mC]*k[5mC]*kG*kA) [compound 829843]  49%
41. 829844 (antisense k[5mC]*kG*kA*dA*dT*dT*dG*dA*dG*d[5mC]*dT*dG*dT*k[5mC]*k[5mC]*kG) [compound 829844]  49%
42. 829849 (antisense kT*kG*kT*dT*dG*dT*d[5mC]*d[5mC]*dG*dA*dA*dT*dT*kG*kA*kG) [compound 829849]  49%
43. 829841 (kT*kG*kG*dA*d[5mC]*dA*d[5mC]*dA*dG*dT*dA*dG*dA*kG*k[5mC]*k[5mC]; antisense) [compound 829841]  50%
44. 829872 (antisense kT*kG*kT*d[5mC]*d[5mC]*dA*dG*dT*dG*dT*dG*dG*d[5mC]*kG*kG*kA) [compound 829872]  50%
45. 829832 (kT*kG*kA*d[5mC]*d[5mC]*dG*dA*dT*d[5mC]*d[5mC]*d[5mC]*d[5mC]*dA*kG*kG*k[5mC]; antisense) [compound 829832]  51%
46. 829835 (k[5mC]*kA*kG*dT*dG*dT*dG*dA*d[5mC]*d[5mC]*dG*dA*dT*k[5mC]*k[5mC]*k[5mC]; antisense) [compound 829835]  52%
47. 829868 (antisense kA*kG*kT*dG*dT*dG*dG*d[5mC]*dG*dG*dA*d[5mC]*dT*kT*kG*kA) [compound 829868]  52%
48. 829873 (antisense kT*kT*kG*dT*d[5mC]*d[5mC]*dA*dG*dT*dG*dT*dG*dG*k[5mC]*kG*kG) [compound 829873]  52%
49. 829875 (antisense k[5mC]*kG*kG*dG*dT*dT*dG*dT*d[5mC]*d[5mC]*dA*dG*dT*kG*kT*kG) [compound 829875]  52%
50. 829858 (antisense kT*kG*k[5mC]*dT*d[5mC]*d[5mC]*dG*d[5mC]*dA*d[5mC]*d[5mC]*dT*dT*k[5mC]*kT*kG) [compound 829858]  59%
51. 829847 (antisense kT*kG*kT*d[5mC]*d[5mC]*dG*dA*dA*dT*dT*dG*dA*dG*k[5mC]*kT*kG) [compound 829847]  64%
